Data on five compounds can be found in article PMC8404199, “Structure–Activity Relationships of Triple-Action Platinum(IV) Prodrugs with Albumin-Binding Properties and Immunomodulating Ligands” (Journal of Medicinal Chemistry, 2021).

The test system of data set [1] is CT26 colon cancer allografts. The data set can be described thus: Anticancer activity against CT26 allografts in Balb/c mice. Particulars: iv, equimolar to 9 mg/kg oxaliplatin; for anticancer activity against CT26 tumors (in words): twice a week for 2 weeks. The data set is classed as in vivo. On the procedure:
Every day, the animals were monitored for body weight and the enhanced stress level, and the tumor size was measured using a caliper according to the formula length × width^2/2.

A short description of data set [2]: Organ distribution of platinum in SKOV3-bearing SCID mice. Particulars: 24 h after single iv dose equimolar to 9 mg/kg oxaliplatin.
Procedure: For tissue digestion, approx. 25–50 mg of tissue was weighed into perfluoralkoxy tubes, and 2 mL of HNO3 and 100 μL H2O2 (30%, Suprapur, Merck, Darmstadt, Germany) were added. The solutions were placed on a hot plate and heated up for 7 h using a temperature program with a maximum of 200 °C. The liquids were transferred to 15 mL tubes with the remaining solution being removed by washing twice with 4 mL of ultrapure water.
Platinum concentrations were measured using an Agilent 7800 ICP-QMS instrument (Agilent Technologies, Tokyo, Japan) equipped with an Agilent SPS 4 autosampler (Agilent Technologies, Tokyo, Japan) and a MicroMist nebulizer at a sample uptake rate of approx. 0.2 mL/min. […] All of the measured samples were blank corrected (for the cell culture data, wells containing no cells were used). Elemental standard solutions were purchased from Labkings (Hilversum, The Netherlands). The instrument was tuned on a daily basis.
SKOV3 cells (1.5 × 10^6 cells in 50 μL serum-free medium) were injected subcutaneously into the right flank of male SCID mice. […] Then, the animals were sacrificed by cervical dislocation, and tumors and organs were collected for the measurement with ICP–MS. For plasma isolation, blood was collected in ethylenediaminetetraacetic acid (EDTA)-coated tubes and centrifuged for 10 min at 900g at 4 °C. Plasma was transferred to a new tube and centrifuged once more to remove residual red blood cells.
Data set [3] concerns murine CT26 colon cancer cells. Nature of the data set: MTT cytotoxicity assay in CT26 cells. In kind it is cell-based. On the procedure:
(§1) Cells were additionally incubated with 5-fold equimolar concentrations of ascorbic acid to increase the reduction rate of the compounds. Cell viability was measured by the MTT-based vitality assay (EZ4U; Biomedica, Vienna, Austria), following the manufacturer’s recommendations.
On the technique in general: Tetrazolium dyes change colour on reduction, which living cells bring about.

The subject of data set [4] is human HCT116 colon cancer cells. Nature of the data set: MTT cytotoxicity assay in HCT116 cells. In kind it is cell-based. The method, then: as §1
For data set [5], the system named is human embryonic kidney cells (HEK293). Nature of the data set: MTT cytotoxicity assay in non-malignant HEK293 cells. The data set is classed as cell-based. Particulars: 72 h. On the procedure: (§2) The cells were seeded at 3500–6000 cells/well in 96-well plates depending on the proliferation rate of the respective cell line and allowed to recover for 24 h. Subsequently, the cells were treated at indicated concentrations for 48 or 72 h. Cells were additionally incubated with 5-fold equimolar concentrations of ascorbic acid to increase the reduction rate of the compounds. Cell viability was measured by the MTT-based vitality assay (EZ4U; Biomedica, Vienna, Austria), following the manufacturer’s recommendations.

For data set [6], the system named is human hepatic cell line (WRL68). The data set can be described thus: MTT cytotoxicity assay in non-malignant WRL68 cells. The conditions noted are these: 72 h. The data set is classed as cell-based. On the procedure:
as §2

The subject of another data set is human SKOV3 cancer cells. Nature of the data set: MTT cytotoxicity assay in SKOV3 cells. The data set is classed as cell-based. Particulars: 72 h incubation. The method, then: as §2
Data set [7] concerns VM7 melanoma cancer cells. The data set can be described thus: MTT cytotoxicity assay in VM7 cells. The data set is classed as cell-based, human. Particulars: 72 h. The method, then: as §2
For another data set, the system named is SKOV3 cancer cells. The data set can be described thus: Long-term cytotoxicity assay (crystal violet) in SKOV3 cells. The data set is classed as cell-based, human. The conditions noted are these: 168 h, crystal violet stain, mean ± SD. The method, then: SKOV3 cells were seeded in duplicates at 5000 cells/well in 24-well plates and allowed to recover for 24 h. Subsequently, the cells were treated at the indicated concentrations for 168 h. Cells were fixed with ice-cold methanol (20 min at 4 °C), washed with PBS, and stained with crystal violet. Subsequently, colony formation was inspected, and the fluorescence signal was detected using Typhoon Trio imager (GE Healthcare, Little Chalfont, UK) at 610/30 nm BP and analyzed by ImageJ software.

Data set [8] in a line: log D7.4 determination by shake flask method and ICP-MS. In kind it is physicochemical. The conditions noted are these: n-octanol/phosphate buffer pH 7.4, Pt by ICP-MS. The method, then:
50 mM stock solutions of the succinimide complexes in DMF were diluted in phosphate buffer (20 mM, pH 7.4, pre-saturated with n-octanol) to a final concentration of 50 μM drug and 0.1% DMF. The platinum content of these aqueous solutions was measured by ICP–MS (see above). The solutions were mixed 1:1 with n-octanol and shaken on a 360° rotatable rack for 3 h. The solutions were centrifuged for 5 min (860g, RT), the aqueous layers were carefully removed, and their Pt content was measured by ICP–MS. Experiments were performed and measured in duplicates, and averages were used for further calculations. log D7.4 values were calculated by the following equation [drawing 1]

Data set [9] is described as follows: UHPLC reduction experiments with L-ascorbic acid. Particulars: 1 mM complex, 10-fold excess AA, phosphate buffer pH 7.4, 1% DMF, 20 °C. In kind it is physicochemical. The method, then:
The platinum(IV)–succinimide complexes were dissolved in 2% DMF in phosphate buffer (500 mM, pH 7.4) to a final concentration of 2 mM. The solutions were then mixed 1:1 with a 20 mM stock of L-ascorbic acid in phosphate buffer (500 mM, pH 7.4) to obtain final concentrations of 1 mM complex, 10 mM L-ascorbic acid, and 1% DMF. The samples were incubated at 20 °C and measured on a Dionex UltiMate 3000 RS UPLC system with a Waters Acquity UPLC BEH C18 column (3 × 50 mm, pore size 1.7 μm) and absorption detection at 220 nm. Data points were taken at t = 0 and every 30 min for 6 h.

A further data set concerns the target T1, albumin (Bos taurus, UniProt P02769).
T1 construct: FCS was purchased from Sigma-Aldrich and buffered with 150 mM phosphate buffer (pH 7.4); tissue Sigma-Aldrich; host or cells: fetal calf serum
The data set can be described thus: SEC-ICP-MS albumin binding and serum stability in fetal calf serum. The data set is classed as in vitro ADME. Particulars: FCS + 150 mM phosphate buffer pH 7.4, 37 °C. The method, then: FCS was purchased from Sigma-Aldrich and buffered with 150 mM phosphate buffer (pH 7.4) to guarantee a stable pH. The maleimide-bearing platinum(IV) complexes were dissolved in 10% DMF in 150 mM phosphate buffer (pH 7.4) to 1 mM and diluted 1:10 in serum to obtain a final concentration of 100 μM. The samples were then incubated in the autosampler at 37 °C for 24 h and analyzed every 1 h. Between each sample, a pure water blank was measured. For SEC–ICP–MS measurements, an Agilent 1260 Infinity system coupled to an Agilent 7800 ICP–MS equipped with a dynamic reaction cell was used. Oxygen (purity 5.5, Messer Austria GmbH, Gumpoldskirchen, Austria) was used as reaction gas.

The subject of another data set is SKOV3 cell lysates. Nature of the data set: Reduction and 1-MDT release in SKOV3 lysates. In kind it is in vitro ADME, human. Particulars: 100 μM, 37 °C. The method, then:
SKOV3 cells were grown in four T225 […] cell culture flasks to reach a high cell number. On the day of cell lysate isolation, cells were washed with PBS, scraped from the surface, and centrifuged. Each cell pellet was lysed in ∼160 μL lysis buffer (15 mM NaCl 0.5% Triton X, ultrapure) and incubated on ice for 1 h. The samples were then centrifuged for 15 min at 14,000 rpm (4 °C), and the cleared lysate was pooled and kept at −80 °C until analysis. Cell lysates were treated with 2 mM stock solutions of respective complexes in 4% DMF and phosphate buffer (100 mM, pH 7.4) to obtain a final compound concentration of 100 μM and incubated at 37 °C. After 0, 4, 24, and 72 h, three volume equivalents of cold MeOH were added to sample aliquots. Samples were stored at 4 °C for 10 min and centrifuged (15,080g, 4 °C, 10 min). LC–MS analysis of the supernatant was performed on an Agilent 1260 Infinity system using a Waters Atlantis T3 column (150 mm × 4.6 mm) and absorption detection at 230 nm, coupled to a Bruker amaZon SL ESI-IT mass spectrometer. Milli-Q water, containing 0.1% formic acid, and acetonitrile, containing 0.1% formic acid, were used as eluents. A gradient of 1–99% acetonitrile in 20 min was used.

Setting [10] is: 48 h incubation, with 5 equiv AA, read-out: CT26 IC50 values +AA, mean ± SD.
[11] abbreviates: 48 h incubation, without AA, read-out: CT26 IC50 values, mean ± SD.
Setting [12] is: 72 h incubation, with 5 eq. AA, read-out: CT26 IC50 values + 5 eq. AA, mean.
Where [13] appears, read: 72 h incubation, without AA, read-out: CT26 IC50 values, mean.
Setting [14] is: 48 h incubation, with 5 equiv AA, read-out: HCT116 IC50 values +AA, mean ± SD.
Setting [15] is: 48 h incubation, without AA, read-out: HCT116 IC50 values, mean ± SD.
Where [16] appears, read: 72 h incubation, with 5 eq. AA, read-out: HCT116 IC50 values + 5 eq. AA, mean.
[17] abbreviates: with 5 eq. AA, read-out: SKOV3 IC50 values + 5 eq. AA, mean.
Setting [18] is: without AA, read-out: SKOV3 IC50 values, mean.
[19] abbreviates: 72 h incubation, without AA, read-out: HCT116 IC50 values, mean.

Structures are written as SMILES. Like-named read-outs stand apart in the source and are kept apart here.

T1 sequence (P02769 25-607): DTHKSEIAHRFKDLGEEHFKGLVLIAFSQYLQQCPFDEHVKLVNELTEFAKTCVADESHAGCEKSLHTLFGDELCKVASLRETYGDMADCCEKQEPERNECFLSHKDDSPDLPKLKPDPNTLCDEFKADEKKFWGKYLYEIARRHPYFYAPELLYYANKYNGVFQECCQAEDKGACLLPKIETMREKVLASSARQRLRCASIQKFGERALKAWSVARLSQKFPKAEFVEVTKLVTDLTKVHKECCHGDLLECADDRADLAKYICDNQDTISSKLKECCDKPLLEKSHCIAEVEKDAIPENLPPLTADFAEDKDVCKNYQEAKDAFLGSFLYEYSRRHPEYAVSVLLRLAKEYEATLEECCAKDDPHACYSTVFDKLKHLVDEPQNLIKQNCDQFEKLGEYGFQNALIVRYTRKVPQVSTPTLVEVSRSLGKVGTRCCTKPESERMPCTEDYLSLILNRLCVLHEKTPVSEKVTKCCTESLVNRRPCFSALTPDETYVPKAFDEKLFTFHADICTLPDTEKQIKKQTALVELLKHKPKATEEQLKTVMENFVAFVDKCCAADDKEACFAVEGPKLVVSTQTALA

For the compound `Cn1cc(CC([NH3+])C(=O)[O][Pt]23([O]C(=O)CCCCCN4C(=O)C=CC4=O)([NH]C4CCCCC4[NH]2)[O]C(=O)C(=O)[O]3)c2ccccc21.O=C([O-])C(F)(F)F` [MalEs/IdoEs, (OC-6-44)-[(R)-2-Ammonio-3-(1-methyl-1H-indol-3-yl)propanoato][(1R,2R)-1,2-yclohexanediamino][6-(2,5-dioxo-2,5-dihydro-1H-pyrrol-1-yl)hexanoato]oxalatoplatinum(IV) Trifluoroacetate], in [1], the “anticancer activity against CT26 tumors (in words)” value is “inactive”. In addition, the “platinum levels in blood plasma” value in [2] is 3.7 mg/kg.

The IC50 is the concentration that gives 50% inhibition. `Cn1cc(CC(NC(=O)[O][Pt]23([O]C(=O)NCCCCCN4C(=O)CCC4=O)([NH]C4CCCCC4[NH]2)[O]C(=O)C(=O)[O]3)C(=O)O)c2ccccc21` [SucCa/IdoCa, (OC-6-24)-[(R)-(1-Carboxy-2-(1-methyl-1H-indol-3-yl)ethyl)carbamato][(1R,2R)-1,2-cyclohexanediamino][(5-(2,5-dioxopyrrolidin-1-yl)pentyl)carbamato]oxalatoplatinum(IV)]: the results for the “ratio (IC50 without AA / with AA), CT26” value in data set [3] (48 h) and in [3] (72 h) were at least 2.6 and 1.89, respectively. For the same compound, the IC50 in data set [3] (setting [10]) was 38.8 ± 3.84 µM; in data set [3] (setting [11]), over 100 µM; in [3] (setting [12]), 43.6 µM; in data set [3] (setting [13]), 82.5 µM; in [4] (setting [14]), 43.3 ± 2.1 µM; in data set [4] (setting [15]), over 100 µM. Moreover, the IC50 in [4] (setting [16]) is 24.7 µM; in data set [5], 81.2 µM; in [6], over 100 µM; in the data set on human SKOV3 cancer cells (setting [17]) it was over 100 µM; in the data set with human SKOV3 cancer cells (setting [18]), over 100 µM; in data set [7], over 100 µM. Moreover, the IC50 with SKOV3 cancer cells turned out to be 54.6 ± 14.1 µM. Besides, the “ratio (IC50 without AA / with AA), HCT116” value in data set [4] (48 h) is at least 2.3; in data set [4] (72 h) it was at least 4. Moreover, the “log D7.4” value in data set [8] is listed as “–1.49”. In addition, in data set [9], the “complex intact after 6 h” value came out at 90%. Further, the “albumin binding in serum (in words)” value on albumin is on record as “significant binding to albumin (tR ~4 min) could be observed for any of the compounds”. Besides, in the data set with SKOV3 cell lysates, the “still present as platinum(IV) species after 72 h” value is listed as about 50%.

Take `CC(=O)[O][Pt]1([O]C(C)=O)[O]C(=O)C(=O)[O]1.N[C@@H]1CCCC[C@H]1N` [OAc/OAc, reference compound]: the IC50 in [3] (setting [10]) came out at 22.6 ± 0.16 µM; in [3] (setting [11]), 25.7 ± 1.4 µM; in data set [3] (setting [12]) it was 33.5 µM; in data set [3] (setting [13]), 42.3 µM; in data set [4] (setting [14]), 20.1 ± 1.57 µM; in data set [4] (setting [15]), 26.6 ± 2.41 µM. Also, the IC50 in data set [4] (setting [16]) was found to be 11.5 µM; in data set [4] (setting [19]), 14.3 µM; in data set [5], 12.2 µM; in data set [6] it was 33.6 µM; in data set [7], 43.5 µM.

`Cn1cc(C[C@@H](NC(=O)[O][Pt]2([O]C(=O)NCCCCCN3C(=O)C=CC3=O)[O]C(=O)C(=O)[O]2)C(=O)O)c2ccccc21.N[C@@H]1CCCC[C@H]1N` [MalCa/IdoCa, (OC-6-24)-[(R)-(1-Carboxy-2-(1-methyl-1H-indol-3-yl)ethyl)carbamato][(1R,2R)-1,2-cyclohexanediamino][5-(2,5-dioxo-2,5-dihydro-1H-pyrrol-1-yl)pentylcarbamato]oxalatoplatinum(IV)]: in data set [1], the “activity directly compared to oxaliplatin: tumor growth and overall survival” value was “superior to oxaliplatin”; the “anticancer activity against CT26 tumors (in words)” value is reported as “significant anticancer activity”. For the same compound, the “platinum levels in blood plasma” value in data set [2] came out at 6.4 mg/kg. For the same compound, in data set [2] (ratio of mean platinum levels), the “Platinum ratio tumor:kidney” value was found to be 0.5 and the “Platinum ratio tumor:liver” value stood at 0.5.

`CC(=O)[O][Pt]1([O]C(=O)NCCCCCN2C(=O)CCC2=O)[O]C(=O)C(=O)[O]1.N[C@@H]1CCCC[C@H]1N` [SucCa/OAc, (OC-6-34)-Acetato[(1R,2R)-1,2-cyclohexanediamine]oxalato[(5-(2,5-dioxopyrrolidin-1-yl)pentyl)carbamato]platinum(IV)]: the entries for the “ratio (IC50 without AA / with AA), CT26” value in data set [3] (48 h) and in [3] (72 h) were 2.67 and 1.37, respectively. For the same compound, the IC50 in [3] (setting [10]) is 28.2 ± 1.81 µM; in [3] (setting [11]) it was 75.21 ± 0.11 µM; in data set [3] (setting [12]), 40.4 µM; in data set [3] (setting [13]), 55.2 µM; in data set [4] (setting [14]), 34 ± 1.58 µM; in [4] (setting [15]), over 100 µM. Also, the IC50 in data set [4] (setting [16]) was 21.8 µM; in data set [4] (setting [19]) it was 42 µM; in [5], 50.8 µM; in [6], over 100 µM; in the data set with human SKOV3 cancer cells (setting [17]), over 100 µM; in the data set on human SKOV3 cancer cells (setting [18]), over 100 µM. The IC50 is over 100 µM in data set [7] and 29.7 ± 0.3 µM in the data set with SKOV3 cancer cells. In addition, the “ratio (IC50 without AA / with AA), HCT116” value in data set [4] (48 h) is on record as at least 2.9; in data set [4] (72 h), 1.93.
